According to publication PMC8954640, “Pyranodipyran Derivatives with Tyrosyl DNA Phosphodiesterase 1 Inhibitory Activities and Fluorescent Properties from Aspergillus sp. EGF 15-0-3” (Marine Drugs, 2022):

Legend:
TDP1 = TDP1 (Homo sapiens, UniProt Q9NUW8); assay: TDP1 inhibition fluorescence assay (quenched fluorescent single-stranded oligonucleotide substrate); assay type: biochemical; details: substrate 5′-FAM-AGGATCTAAAAGACTT-BHQ-3′, repeated at least three times, read-out: TDP1 Inhibition (IC50 ± SD)
From the text: Considering the chiral properties of compounds will affect their activity, all of the obtained compounds, including racemates and enantiomers, were screened for TDP1 inhibition through a fluorescence assay using a quenched fluorescent single-stranded oligonucleotide (5′-FAM-AGGATCTAAAAGACTT-BHQ-3′) as substrate. […] To further investigate the mechanism of the TDP1 inhibitory activity of (+)-6 and (−)-6, a hypothetical binding mode was built using in silico docking from the X-ray crystal structure of humanized TDP1-inhibitor (PDB: 6DJD) to evaluate the mode of interactions of (+)-6 and (−)-6 with TDP1. The inhibitor was docked into the binding site. The tricyclic core of (+)-6 binds to the DNA binding groove in the proximity of the catalytically important residue His263, indicating a potential π–π stacking interaction stabilizing the inhibitor TDP1 complex. Three hypothetical hydrogen bonds were observed between the phenol hydroxy group and the amide group of residue Asn516 (2.9 Å), the 1″-hydroxy group and Ser518 residue (3.0 Å), and the pyran O atom and Ser400 residue (3.5 Å), which might contribute to TDP1 inhibition. Similarly, the polycyclic core scaffold of (−)-6 also lied along the DNA binding groove (Figure 7B), and the H-bonds (3.1 Å) between the phenol hydroxy group and the amide group of residue Asn516 was also observed. In addition, two H-bonds formed between the 2″-hydroxyl group and Ser400 residue (2.5 Å) and the pyran oxygen atom and phenol hydroxy group of Tyr204 residue (3.1 Å). […] The gold score values of (+)-6 and (−)-6 were 55.62 and 44.90, respectively. […] The mechanism of the TDP1 inhibitory activity of (±)-6 remains to be validated by biophysical assays in further research.
The TDP1 inhibition was tested through a fluorescence assay according to a previously reported method. Detailed procedures are included in the Supporting Information. […]
Briefly, TDP1 solution (20 μL/well, 0.02 μL of purified TDP1 (100 nM) in 10 mM Tris-HCl, pH 7.5, 50 mM KCl, 1 mM EDTA, 1 mM DTT) was dispensed into wells of a white 384-well plate (NEST). The tested compound solution in DMSO (5 μL) was pinned into assay plates and incubated at room tempera-ture for 30 min. During this time, the plates were read by a Flash multimode reader (Molecular Devices) at Ex485/Em510 nm to identify false-positive compound that had autofluorescence. The linear oligonucle-otide substrate 5′-FAM-AGGATCTAAAAGACTT-BHQ-3′ (25 μL, 35 nM) was dispensed into the wells to start the reaction. The whole plate was immediately read five times using a kinetic read on the Flash […]
multimode reader (Molecular Devices) (Ex485/Em510 nm). TDP1 percentage inhibition of the tested com-pound was calculated by comparing the rate of increase in fluorescence throughout time for the com-pound-treated wells to that of DMSO control wells. […]

[1] = Measurement of fluorescent properties in MeOH; assay type: physicochemical; details: 300 μg/mL in MeOH; for Stokes Shift / λ em: λexc = 365 nm
Description: (§1) Each probe was prepared at 300 μg/mL in MeOH. The absorption spectra were recorded from 200 to 400 nm using a Chirascan circular dichroism spectrometer ([…]). The fluorescence spectra were recorded from 385 to 750 nm with an excitation wavelength of 365 nm using Edinburgh Instruments FLS1000. For UV-irradiated probes, each probe was exposed to 365 nm UV light from a handheld UV lamp for a certain time, and the fluorescence spectra were then recorded using the same method mentioned above.

[2] = Change in fluorescence emission upon photoirradiation with 365 nm UV light; assay type: physicochemical; details: MeOH
Description: In addition, the fluorescent properties of 1–6 were also evaluated. […] Meanwhile, compounds 1–6 with the concentration of […] were exposed to […] UV light, and their fluorescence emission spectra were recorded (Figure 10) as a control experiment because the assay used to assess TDP1 inhibition was a fluorescence assay. […] In addition, during the TDP1 inhibition assay, the tested compound solutions were read by a Flash multimode reader at Ex485/Em510 nm to identify false-positive compounds that had autofluorescence.
as §1

Chain of TDP1 (Q9NUW8 whole entry): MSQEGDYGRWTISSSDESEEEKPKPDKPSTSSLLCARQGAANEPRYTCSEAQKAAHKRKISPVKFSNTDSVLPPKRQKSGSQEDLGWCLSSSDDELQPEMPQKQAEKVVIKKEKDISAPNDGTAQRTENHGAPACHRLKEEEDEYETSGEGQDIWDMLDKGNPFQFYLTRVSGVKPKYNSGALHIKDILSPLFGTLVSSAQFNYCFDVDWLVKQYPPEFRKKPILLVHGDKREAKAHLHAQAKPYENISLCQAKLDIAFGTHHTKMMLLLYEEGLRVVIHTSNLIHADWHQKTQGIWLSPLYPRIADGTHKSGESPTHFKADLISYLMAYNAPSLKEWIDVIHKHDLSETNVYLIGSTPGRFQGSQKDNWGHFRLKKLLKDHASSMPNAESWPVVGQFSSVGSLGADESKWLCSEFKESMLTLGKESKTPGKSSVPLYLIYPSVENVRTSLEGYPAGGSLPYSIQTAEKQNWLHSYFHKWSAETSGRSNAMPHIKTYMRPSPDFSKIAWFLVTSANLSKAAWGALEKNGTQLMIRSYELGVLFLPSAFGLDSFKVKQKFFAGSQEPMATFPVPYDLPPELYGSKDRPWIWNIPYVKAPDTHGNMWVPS

Compound: CCCCC[C@H]1O[C@H](OC)c2c3c(cc(O)c2[C@@H]1OC)C=CC(C)(C)O3 [(+)-2, eurotiumide F]
- IC50 (TDP1): > 100 µM

Compound: CCCCCC1OC(OC)c2c3c(cc(O)c2C1OC)C=CC(C)(C)O3 (racemic) [(±)-1, (±)-Eurotiumide G]
- IC50 (TDP1): > 100 µM
- ε ([1]; listed as 1): 125388.61 M^–1cm^–1
- λ abs ([1]; listed as 1): 221 nm
- φ F ([1]; listed as 1): 0.0392
- Stokes Shift ([1]; listed as 1): 224 nm
- λ em ([1]; listed as 1): 445 nm
- change of fluorescence with time upon 365 nm irradiation (photobleaching) ([2]; listed as 1): increased substantially with time

Compound: CCCCC[C@@H]1O[C@@H](OC)c2c3c(cc(O)c2[C@@H]1OC)C[C@@H](OC)C(C)(C)O3 [(−)-4, Aspergiletal B]
- IC50 (TDP1): > 100 µM

Compound: CCCCC[C@@H]1O[C@@H](OC)c2c3c(cc(O)c2[C@@H]1OC)C=C(OC)C(C)(C)O3 [(−)-3, Aspergiletal A]
- IC50 (TDP1): > 100 µM

Compound: CCCCC[C@H]1O[C@H](OC)c2c3c(cc(O)c2[C@H]1OC)C[C@H](OC)C(C)(C)O3 [(+)-4, Aspergiletal B]
- IC50 (TDP1): > 100 µM

Compound: CCCCC[C@@H]1O[C@@H](OC)c2c3c(cc(O)c2[C@@H]1OC)[C@@H](O)[C@@H](O)C(C)(C)O3 [(−)-6, Aspergiletal D]
- IC50 (TDP1): 37.3 ± 3.63 µM

Compound: CCCCC[C@H]1O[C@H](OC)c2c3c(cc(O)c2[C@H]1OC)C=C(OC)C(C)(C)O3 [(+)-3, Aspergiletal A]
- IC50 (TDP1): > 100 µM

Compound: CCCCCC1OC(OC)c2c3c(cc(O)c2C1OC)C(O)C(O)C(C)(C)O3 (racemic) [(±)-6, (±)-Aspergiletal D]
- IC50 (TDP1): 6.5 ± 0.73 µM
- ε [1]: 127827.28 M^–1cm^–1
- λ abs [1]: 225 nm
- φ F [1]: 0.0416
- Stokes Shift [1]: 199 nm
- λ em [1]: 424 nm
- change of fluorescence with time upon 365 nm irradiation (photobleaching) [2]: significant loss of fluorescence with time

Compound: CCCCCC1OC(OC)c2c3c(cc(O)c2C1OC)CC(O)C(C)(C)O3 (racemic) [(±)-5, (±)-Aspergiletal C]
- IC50 (TDP1): > 100 µM
- ε [1]: 106186.60 M^–1cm^–1
- λ abs [1]: 203 nm
- φ F [1]: 0.0482
- Stokes Shift [1]: 229 nm
- λ em [1]: 432 nm
- change of fluorescence with time upon 365 nm irradiation (photobleaching) [2]: significant loss of fluorescence with time

Compound: CCCCCC1OC(OC)c2c3c(cc(O)c2C1OC)C=CC(C)(C)O3 (racemic) [(±)-2, (±)-Eurotiumide F]
- IC50 (TDP1): 57.8 ± 2.2 µM
- ε ([1]; listed as 2): 70590.11 M^–1cm^–1
- λ abs ([1]; listed as 2): 223 nm
- φ F ([1]; listed as 2): 0.0225
- Stokes Shift ([1]; listed as 2): 241 nm
- λ em ([1]; listed as 2): 464 nm
- change of fluorescence with time upon 365 nm irradiation (photobleaching) ([2]; listed as 2): responded similarly to 1 but with a smaller magnitude improvement in fluorescence

Compound: CCCCC[C@H]1O[C@H](OC)c2c3c(cc(O)c2[C@H]1OC)C[C@H](O)C(C)(C)O3 [(+)-5, Aspergiletal C]
- IC50 (TDP1): > 100 µM

Compound: CCCCCC1OC(OC)c2c3c(cc(O)c2C1OC)C=CC(C)(C)O3 (single isomer, unassigned; (-)) [(−)-1, eurotiumide G]
- IC50 (TDP1): > 100 µM

Compound: CCCCCC1OC(OC)c2c3c(cc(O)c2C1OC)C=C(OC)C(C)(C)O3 (racemic) [(±)-3, (±)-Aspergiletal A]
- IC50 (TDP1): > 100 µM
- ε [1]: 61279.01 M^–1cm^–1
- λ abs [1]: 206 nm
- φ F [1]: 0.0048
- Stokes Shift [1]: 266 nm
- λ em [1]: 472 nm
- change of fluorescence with time upon 365 nm irradiation (photobleaching) [2]: significant loss of fluorescence with time

Compound: CCCCC[C@H]1O[C@H](OC)c2c3c(cc(O)c2[C@H]1OC)[C@H](O)[C@H](O)C(C)(C)O3 [(+)-6, Aspergiletal D]
- IC50 (TDP1): 27.8 ± 1.73 µM

Compound: CCCCC[C@H]1O[C@H](OC)c2c3c(cc(O)c2[C@H]1OC)C=CC(C)(C)O3 [(+)-1, eurotiumide G]
- IC50 (TDP1): > 100 µM

Compound: CCCCC[C@@H]1O[C@@H](OC)c2c3c(cc(O)c2[C@H]1OC)C=CC(C)(C)O3 [(−)-2, eurotiumide F]
- IC50 (TDP1): > 100 µM

Compound: CCCCCC1OC(OC)c2c3c(cc(O)c2C1OC)CC(OC)C(C)(C)O3 (racemic) [(±)-4, (±)-Aspergiletal B]
- IC50 (TDP1): > 100 µM
- ε [1]: 208307.41 M^–1cm^–1
- λ abs [1]: 225 nm
- φ F [1]: 0.0649
- Stokes Shift [1]: 203 nm
- λ em [1]: 428 nm
- change of fluorescence with time upon 365 nm irradiation (photobleaching) [2]: inert to photobleaching

Compound: CCCCC[C@@H]1O[C@@H](OC)c2c3c(cc(O)c2[C@@H]1OC)C[C@@H](O)C(C)(C)O3 [(−)-5, Aspergiletal C]
- IC50 (TDP1): > 100 µM
